Tests used:
Type in all cases: cell-based
[1] = Cell cytotoxicity 50 assay (CC50), HEK cells; conditions: human
Method in brief: (§1)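 Starting from a 10 mM drug solution, serial dilutions were made in medium and added onto HEK cells, which were then incubated 72 h at 37 °C. Viability was read as CellTiter-Glo luminescence after 5 min, and CC50 was obtained by curve fitting.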

DUX4 = target: T1, DUX4 (Homo sapiens, UniProt Q9UBX2); assay: DUX4 EC50 luciferase reporter protocol in transfected HEK293 cells; conditions: 6 hr
T1 construct: expressed in transfected cells; host or cells: HEK293
T1 sequence (Q9UBX2 whole entry): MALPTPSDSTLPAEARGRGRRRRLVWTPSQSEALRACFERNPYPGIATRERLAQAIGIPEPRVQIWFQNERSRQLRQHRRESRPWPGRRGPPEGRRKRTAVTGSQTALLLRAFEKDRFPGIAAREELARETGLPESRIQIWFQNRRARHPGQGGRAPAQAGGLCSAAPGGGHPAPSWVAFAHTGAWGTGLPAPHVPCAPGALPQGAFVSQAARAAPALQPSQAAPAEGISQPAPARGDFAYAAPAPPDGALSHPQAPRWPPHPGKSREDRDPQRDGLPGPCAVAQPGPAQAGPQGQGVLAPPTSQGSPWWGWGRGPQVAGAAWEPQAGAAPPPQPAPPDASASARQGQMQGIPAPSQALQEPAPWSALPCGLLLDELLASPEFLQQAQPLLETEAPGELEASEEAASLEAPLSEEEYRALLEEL
Source text: EC50 Protocol This example provides a representative protocol for a single well of a 96-well plate. It can be scaled up as necessary for treatment of multiple wells. For negative controls, a well containing reporter DNA, Renilla DNA, and turbofect (without expression vector) were used. For positive controls, wells containing cells that were not treated with any inhibitor were used. They were transfected with the complete DNA lipid complex as set forth below. The DNA-lipid complex for one well of the 96-well plate is prepared by adding to a tube 100 ng of the transfection factor (TF) expression vector, 100 ng of TF reporter DNA, 10 ng of Renilla reporter DNA, […] Turbofect transfection reagent, and […] of the medium without any serum or penicillin/streptomycin. The combination was mixed by gentle flicking of the tube, and the mixture was pipetted into a well of a 96-well plate. The plate was then gently tapped to spread the combination evenly on the bottom of the well. The well was incubated for 30 min. HEK293 cells were grown until 80% confluent in DMEM supplemented with 10% fetal bovine serum, 1% penicillin streptomycin, and 1% amphotericin B. The adherent cells growing on a 10 cm plate were trypsinized with 1 mL of prewarmed trypsin. Once the cells detached from the plate, 10 mL of medium was added, and the cells were strained through a […] cell strainer. The cells were counted using a mixture of 10 mL cell suspension with 10 mL of trypan blue. Once the total number of cells are counted, a dilution of 150 k/mL was prepared. After incubation of the transfection complex was complete, […] of HEK293s (23.25 k total cells) were gently dispensed on top of the wells containing the 25 mL transfection complex, producing a total volume of about 180 mL. The mixture was then incubated for 24 h. To treat cells with each inhibitor, the inhibitors were prepared in the same growth medium. In a deep well block, the regular medium with serum was added to well 1 (135 mL) and to wells 2 through 10 (100 mL). To the first well was added 15 mL of 10 nM inhibitor. The final concentration of the drug in well 1 was 1 nM. The wells were pipeted up and down, and 50 mL was transferred from well 1 to well 2 (1/3 dilution). The well was mixed, and the seriation dilution was repeated with the remaining wells. Once the serial dilution was complete, using a multichannel pipet, 20 mL of each inhibitor were transferred to designated wells in a 96-well plate. […] Before the assay, a sufficient amount of 1× passive lysis buffer was prepared. The luciferase substrate buffer (Promega) was thawed completely and then mixed with the lyophilized luciferase substrate. The stop buffer (Promega) was also completely thawed. (1) Cell lysis: After treatment of the cells was complete, all the cell media is removed by flipping the 96-well plate over and tapping it dry on a dry paper towel. Immediately afterwards, the 1× passive lysis buffer (25 μL) was added. The plates were then placed on a rocker for 15 minutes at medium speed. (2)Measuring luciferase signal: The luciferase substrate solution for all wells was placed in a solution basin. The luciferase substrate solution was then added to every well (100 μL/well) using a multichannel pipette. The total luminescence was then read immediately using a plate reader. (3)Measuring Renilla signal: The “complete stop solution” was prepared in a solution basin by mixing the buffer with the 50× stop solution substrate (Promega) to make the final 1× solution. The complete stop solution was added to each well (50 μL/well) using a multichannel pipette. The total luminescence was then read immediately using a plate reader. Using a spreadsheet (e.g., Excel), the luciferase signal was divided by the renilla signal to get a relative luciferase unit.

[2] = Cell cytotoxicity 50 assay (CC50), MB200 cells, cell titer glo; conditions: human
Method in brief: (§2)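 MB200 cells were seeded at 10 k/well in F10 medium with bFGF, 15% FBS and dexamethasone. Cells were exposed to serially diluted compound (from 10 mM stock) in triplicate for 72 h at 37 °C. Viability was read by CellTiter-Glo luminescence and CC50 was fitted.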

MBD3L2 RNA = assay: RNA isolation and qPCR to determine MBD3L2 RNA levels in FSHD cells; conditions: 48 hrs
Method in brief: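 FSHD cells were treated one day after seeding with a DUX4 inhibitor (11 μM or 3.6 μM) for 48 h. Total RNA was DNase-treated and reverse-transcribed with random hexamers and M-MLV. MBD3L2 was quantified by SYBR Green qPCR in triplicate against EEF1A as the reference gene.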

HEK = assay: Cell cytotoxicity 50 assay (CC50), HEK cells
Method in brief: as §1

MB200 cells = assay: Cell cytotoxicity 50 assay (CC50), MB200 cells, cell titer glo; conditions: 72 h
Method in brief: as §2

EC50 (DUX4) | Compound | CC50 at 72 h [1] | CC50 at 72 h [2] | qPCR MBD3L2 Inhib at 11 µM (MBD3L2 RNA) | CC50 (HEK) | CC50 (MB200 cells)
> 10 µM | O=C(CCCCN1C(=O)CCC1=O)NC1CCC(c2nc3ccccc3s2)CC1 (stereo not shown) [Compound 143] | > 10 µM | > 10 µM | – | – | –
> 10 µM | CC(=O)NCCCC(=O)Nc1ncc(-c2nc3ccccc3s2)o1 [Compound 121] | > 10 µM | > 10 µM | – | – | –
> 10 µM | O=C(CCCN1C(=O)CCC1=O)N[C@H]1CC[C@@H](c2nc3ccccc3s2)C1 [Compound 160] | > 10 µM | > 10 µM | – | – | –
> 10 µM | CC(=O)NC1CCC(C(=O)NC2CCC(c3nc4ccccc4s3)C2)C1 (stereo not shown) [Compound 135] | > 10 µM | > 10 µM | – | – | –
> 10 µM | O=C(CCCN1C(=O)CCC1=O)N[C@@H]1CC[C@H](c2nc3ccccc3s2)C1 [Compound 127] | > 10 µM | > 10 µM | – | – | –
> 10 µM | CC(=O)NC1CCC(C(=O)N[C@H]2CC[C@@H](c3nc4ccccc4s3)CC2)C1 (stereo partly shown) [Compound 133] | > 10 µM | > 10 µM | – | – | –
> 10 µM | CC(=O)NCCCN(C)C(=O)[C@@H]1CC[C@H](c2nc3ccccc3s2)C1 [Compound 153] | > 10 µM | > 10 µM | – | – | –
> 10 µM | O=C(CCCN1C(=O)CCC1=O)N[C@H]1CC[C@H](c2nc3ccccc3s2)C1 [Compound 128] | > 10 µM | > 10 µM | – | – | –
> 10 µM | CN(C(=O)CCCN1C(=O)CCC1=O)C1CCC(c2nc3ccccc3s2)C1 (stereo not shown) [Compound 147] | > 10 µM | > 10 µM | – | – | –
> 10 µM | CC(=O)NCCCC(=O)N[C@H]1CCC[C@H]1c1nc2ccccc2s1 [Compound 136] | > 10 µM | > 10 µM | – | – | –
> 10 µM | CC(=O)NCCCNC(=O)[C@@H]1CC[C@H](c2nc3ccccc3s2)C1 [Compound 165] | > 10 µM | > 10 µM | – | – | –
> 10 µM | O=C(CCCCN1C(=O)CCC1=O)N[C@H]1CC[C@H](c2nc3ccccc3s2)CC1 [Compound 152] | > 10 µM | > 10 µM | – | – | –
> 10 µM | CC(=O)NCCCN(C)C(=O)[C@H]1CC[C@H](c2nc3ccccc3s2)C1 [Compound 154] | > 10 µM | > 10 µM | – | – | –
> 10 µM | CC(=O)NCCCCC(=O)NC1CCC(c2nc3ccccc3s2)CC1 (stereo not shown) [Compound 139] | > 10 µM | > 10 µM | – | – | –
> 10 µM | O=C(CCCN1C(=O)CCC1=O)N[C@H]1C[C@H](c2nc3ccccc3s2)C1 [Compound 98] | > 10 µM | > 10 µM | – | – | –
> 10 µM | CC(=O)NCCCC(=O)N[C@@H]1CCC[C@H]1c1nc2ccccc2s1 [Compound 137] | > 10 µM | > 10 µM | – | – | –
> 10 µM | CC(=O)NCCCNC(=O)[C@H]1CC[C@H](c2nc3ccccc3s2)C1 [Compound 166] | > 10 µM | > 10 µM | – | – | –
> 10 µM | CC(=O)NCCCC(=O)N(C)C1CCC(c2nc3ccccc3s2)C1 (stereo not shown) [Compound 146] | > 10 µM | > 10 µM | – | – | –

Second part, the compound before the results:

Compound | EC50 (DUX4) | CC50 at 72 h [1] | CC50 at 72 h [2] | qPCR MBD3L2 Inhib at 11 µM (MBD3L2 RNA) | CC50 (HEK) | CC50 (MB200 cells)
O=C1CCC(CCC(=O)N[C@H]2CC[C@@H](c3nc4ccccc4s3)CC2)N1 (stereo partly shown) [Compound 186] | > 10 µM | > 10 µM | > 10 µM | – | – | –
O=C(NCCCN1C(=O)CCC1=O)c1ccc(Cc2nc3ccccc3s2)cc1 [Compound 150] | > 10 µM | > 10 µM | > 10 µM | – | – | –
O=C(CCC1CCC(=O)N1)Nc1ccc(-c2nc3ccccc3s2)cc1 (stereo not shown) [Compound 26] | – | – | – | YES | > 10 µM | 1 to 10 µM
O=C1CCC(CCC(=O)N[C@H]2CC[C@H](c3nc4ccccc4s3)CC2)N1 (stereo partly shown) [Compound 187] | > 10 µM | > 10 µM | > 10 µM | – | – | –
O=C(CCCN1C(=O)CCC1=O)Nc1ccc(Cc2nc3ccccc3s2)cc1 [Compound 148] | > 10 µM | > 10 µM | > 10 µM | – | – | –
O=C1CCC(=O)N1[C@H]1C[C@@H](C(=O)Nc2ccc(-c3nc4ccccc4s3)cc2)C1 [Compound 95] | > 10 µM | > 10 µM | > 10 µM | – | – | –
CC(=O)NCCCC(=O)Nc1cc(F)cc(-c2nc3cc(F)ccc3s2)c1 [Compound 181] | > 10 µM | > 10 µM | > 10 µM | – | – | –
O=C(CCN1C(=O)CCC1=O)Nc1ccc(-c2ccc3ncsc3c2)cc1 [Compound 43] | > 10 µM | > 10 µM | > 10 µM | – | – | –
O=C(CCC(=O)c1cccs1)Nc1ccc(-c2nc3ccccc3s2)cc1 [Compound 25] | > 10 µM | > 10 µM | > 10 µM | – | – | –
O=C(CCCN1CCCC1=O)NC1COCC1c1nc2ccccc2s1 (stereo not shown) [Compound 122] | > 10 µM | > 10 µM | > 10 µM | – | – | –
CC(=O)NCCCNC(=O)c1cc(F)cc(-c2nc3cc(F)ccc3s2)c1 [Compound 180] | > 10 µM | > 10 µM | > 10 µM | – | – | –
O=C(CCCN1CCCC1=O)NC1CCCCC1c1nc2ccccc2s1 (stereo not shown) [Compound 123] | > 10 µM | > 10 µM | > 10 µM | – | – | –
O=C(CCN1C(=O)CCC1=O)Nc1ccc(C(=O)c2nc3ccccc3s2)cc1 [Compound 69] | > 10 µM | > 10 µM | 1 to 10 µM | – | – | –
CC(=O)NCCCC(=O)Nc1coc(-c2nccs2)c1 [Compound 79] | > 10 µM | > 10 µM | > 10 µM | – | – | –
CC(=O)NCCCC(=O)Nc1ccc(Cc2nc3ccccc3s2)cc1 [Compound 80] | > 10 µM | > 10 µM | > 10 µM | – | – | –
O=C(CCCN1C(=O)CCC1=O)N[C@@H]1CC[C@H](c2nc3ccccc3s2)C1 [Compound 159] | – | – | – | – | – | > 10 µM

From patent US20250313555A1, “2-SUBSTITUTED THIAZOLE AND BENZOTHIAZOLE COMPOSITIONS AND METHODS AS DUX4 INHIBITORS” (ALTAY THERAPEUTICS, INC., priority 2022, published 2025)
